19 compounds from patent US8642585B2, “Indanyloxydihydrobenzofuranylacetic acids” (Boehringer Ingelheim International GmbH, priority 2012, dated 2014) can be followed below.

One may read the EC50 as the concentration giving half of the maximal effect. Low values mean an effect from little substance, high ones a need for much substance.

In this assay the target is human GPR40 receptor (Homo sapiens, UniProt O14842). Put plainly: Assay II: IP1 accumulation (IPOne HTRF) in 1321N1 cells stably expressing human GPR40. The settings on record: 1321N1 cells expressing human GPR40, stimulation 1 h at 37° C., 5% CO2, LiCl 50 mM. The class given is cell-based. The method, then: IP1 accumulation measurements using the IPOne assay system—1321N1 cells stably expressing human GPR40 receptor (Euroscreen, Belgium) are seeded 24 h before the assay in white 384-well plates in culture medium containing 10% FCS, 1% Na-Pyruvate and 400 μg/mL G418. IP1 is assayed according to the manufacturers description (Cisbio Bioassays, France). In brief, the assay is started by substitution of the culture medium by stimulation buffer (Hepes 10 mM, CaCl2 1 mM, MgCl2 0.5 mM, KCl 4.2 mM, NaCl 146 mM, glucose 5.5 mM and LiCl 50 mM, pH 7.4). Cells are stimulated for 1 h at 37° C., 5% CO2 by addition of the compounds that are diluted in stimulation buffer containing LiCl. Assays are stopped by adding HTRF-conjugates (IP1-d2 and Anti-IP1 cryptate Tb) and lysis buffer, provided by the manufacturer. After an incubation time of 1 h at room temperature plates are measured using an EnVision™, Perkin Elmer. The obtained fluorescence ratios at 665/615 nM are then used to calculate the pEC50 values using Assay Explorer 3.3 Software (Accelrys, Inc.) by interpolation using an IP1 reference curve and subsequent sigmoidal curve fitting allowing for a variable hill slope.
Sequence of human GPR40 receptor (O14842 whole entry): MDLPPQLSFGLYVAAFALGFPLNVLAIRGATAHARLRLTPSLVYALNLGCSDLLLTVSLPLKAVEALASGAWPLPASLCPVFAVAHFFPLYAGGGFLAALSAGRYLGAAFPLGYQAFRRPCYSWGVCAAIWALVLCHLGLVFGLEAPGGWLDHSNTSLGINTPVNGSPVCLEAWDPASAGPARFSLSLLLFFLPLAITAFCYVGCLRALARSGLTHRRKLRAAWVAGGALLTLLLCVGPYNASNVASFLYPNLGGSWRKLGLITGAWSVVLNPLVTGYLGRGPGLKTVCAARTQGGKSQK
Background: In TR-FRET formats the signal depends on donor and acceptor labels being close together.

Turning to `Cc1cc(OC2CCN(C)C2=O)cc(C)c1-c1ccc(F)c2c1CC[C@H]2Oc1ccc2c(c1)OC[C@H]2CC(=O)O` (stereo partly drawn) [Example 76, 2-((3S)-6-((1R)-4-(2,6-Dimethyl-4-(1-methyl-2-oxopyrrolidin-3-yloxy)phenyl)-7-fluoro-2,3-dihydro-1H-inden-1-yloxy)-2,3-dihydrobenzofuran-3-yl)acetic acid], the EC50 is 27 nM.
To `Cc1cc(-c2ccccn2)cc(C)c1-c1ccc(F)c2c1CC[C@H]2Oc1ccc2c(c1)OC[C@H]2CC(=O)O` [Example 137, {(S)-6-[(R)-4-(2,6-Dimethyl-4-pyridin-2-yl-phenyl)-7-fluoro-indan-1-yloxy]-2,3-dihydro-benzofuran-3-yl}-acetic acid] belongs 2 nM; to `Cc1cc(-c2nnn[nH]2)cc(C)c1-c1ccc(F)c2c1CC[C@H]2Oc1ccc2c(c1)OC[C@H]2CC(=O)O` [Example 94, 2-((S)-6-((R)-4-(2,6-Dimethyl-4-(1H-tetrazol-5-yl)phenyl)-7-fluoro-2,3-dihydro-1H-inden-1-yloxy)-2,3-dihydrobenzofuran-3-yl)acetic acid], 82 nM.
To `Cc1cc(-c2cn(C)c(C)n2)cc(C)c1-c1ccc(F)c2c1CC[C@H]2Oc1ccc2c(c1)OC[C@H]2CC(=O)O` [Example 131, {(S)-6-[(R)-4-(2,6-Dimethyl-4-(1,2-dimethyl-imidazol-4-yl)-phenyl)-7-fluoro-indan-1-yloxy]-2,3-dihydro-benzofuran-3-yl}-acetic acid] belongs 2 nM; to `Cc1cc(-c2cc(C)c(-c3ccc(F)c4c3CC[C@H]4Oc3ccc4c(c3)OC[C@H]4CC(=O)O)c(C)c2)cc(C)n1` [Example 121, {(S)-6-[(R)-4-(2,6-Dimethyl-4-(2,6-dimethyl-pyridin-4-yl)-phenyl)-7-fluoro-indan-1-yloxy]-2,3-dihydro-benzofuran-3-yl}-acetic acid], 2 nM.
The compound `Cc1cc(C2CCOC2)cc(C)c1-c1ccc(F)c2c1CC[C@H]2Oc1ccc2c(c1)OC[C@H]2CC(=O)O` (stereo partly drawn) [Example 87, 2-((3S)-6-((1R)-4-(2,6-Dimethyl-4-(tetrahydrofuran-3-yl)phenyl)-7-fluoro-2,3-dihydro-1H-inden-1-yloxy)-2,3-dihydrobenzofuran-3-yl)acetic acid] returned an EC50 of 24 nM.
For the compound `Cc1cc(OCCN2CCCS2(=O)=O)cc(C)c1-c1ccc(F)c2c1CC[C@H]2Oc1ccc2c(c1)OC[C@H]2CC(=O)O` [Example 40], the EC50 was 13 nM.
Take `Cc1cncc(-c2cc(C)c(-c3ccc(F)c4c3CC[C@H]4Oc3ccc4c(c3)OC[C@H]4CC(=O)O)c(C)c2)n1` [Example 118, {(S)-6-[(R)-4-(2,6-Dimethyl-4-(6-methyl-pyrazin-2-yl)-phenyl)-7-fluoro-indan-1-yloxy]-2,3-dihydro-benzofuran-3-yl}-acetic acid]: the EC50 came to 2 nM.
In turn, `Cc1cc(-c2nnn(CC(C)(C)O)n2)cc(C)c1-c1ccc(F)c2c1CC[C@H]2Oc1ccc2c(c1)OC[C@H]2CC(=O)O` [Example 98, 2-((S)-6-((R)-7-Fluoro-4-(4-(2-(2-hydroxy-2-methylpropyl)-2H-tetrazol-5-yl)-2,6-dimethylphenyl)-2,3-dihydro-1H-inden-1-yloxy)-2,3-dihydrobenzofuran-3-yl)acetic acid] came in with an EC50 of 3 nM.
`Cc1cc(C2=CC(=O)OCC2)cc(C)c1-c1ccc(F)c2c1CC[C@H]2Oc1ccc2c(c1)OC[C@H]2CC(=O)O` [Example 81, 2-((S)-6-((R)-4-(2,6-Dimethyl-4-(6-oxo-3,6-dihydro-2H-pyran-4-yl)phenyl)-7-fluoro-2,3-dihydro-1H-inden-1-yloxy)-2,3-dihydrobenzofuran-3-yl)acetic acid] yielded a concentration giving a half-maximal response (EC50) of 8 nM. Compared with the last compound, the EC50 is about 2.7-fold higher.
To `CC(=O)NCCc1cc(C)c(-c2ccc(F)c3c2CC[C@H]3Oc2ccc3c(c2)OC[C@H]3CC(=O)O)c(C)c1` [Example 72, 2-((S)-6-((R)-4-(4-(2-Acetamidoethyl)-2,6-dimethylphenyl)-7-fluoro-2,3-dihydro-1H-inden-1-yloxy)-2,3-dihydrobenzofuran-3-yl)acetic acid] belongs 23 nM; to `Cc1cc(OCCNS(C)(=O)=O)cc(C)c1-c1ccc(F)c2c1CC[C@H]2Oc1ccc2c(c1)OC[C@H]2CC(=O)O` [Example 71, 2-((S)-6-((R)-4-(2,6-Dimethyl-4-(2-(methylsulfonamido)ethoxy)phenyl)-7-fluoro-2,3-dihydro-1H-inden-1-yloxy)-2,3-dihydrobenzofuran-3-yl)acetic acid], 28 nM.
Compound `Cc1ccnc(-c2cc(C)c(-c3ccc(F)c4c3CC[C@H]4Oc3ccc4c(c3)OC[C@H]4CC(=O)O)c(C)c2)n1` [Example 119, {(S)-6-[(R)-4-(2,6-Dimethyl-4-(4-methyl-pyrimidin-2-yl)-phenyl)-7-fluoro-indan-1-yloxy]-2,3-dihydro-benzofuran-3-yl}-acetic acid] showed a concentration giving a half-maximal response (EC50) of 1 nM.
The result for `Cc1cc(OCC(C)(C)CS(C)(=O)=O)cc(C)c1-c1ccc(F)c2c1CC[C@H]2Oc1ccc2c(c1)OC[C@H]2CC(=O)O` [Example 77, 2-((S)-6-((R)-4-(4-(2,2-Dimethyl-3-(methylsulfonyl)propoxy)-2,6-dimethylphenyl)-7-fluoro-2,3-dihydro-1H-inden-1-yloxy)-2,3-dihydrobenzofuran-3-yl)acetic acid] reads 10 nM.
To `Cn1nnnc1-c1c(F)cccc1-c1ccc(F)c2c1CC[C@H]2Oc1ccc2c(c1)OC[C@H]2CC(=O)O` [Example 103, 2-((3S)-6-((1R)-7-Fluoro-4-(3-fluoro-2-(1-methyl-1H-tetrazol-5-yl)phenyl)-2,3-dihydro-1H-inden-1-yloxy)-2,3-dihydrobenzofuran-3-yl)acetic acid] belongs 1430 nM.
To `COc1cnnc(-c2cc(C)c(-c3ccc(F)c4c3CC[C@H]4Oc3ccc4c(c3)OC[C@H]4CC(=O)O)c(C)c2)c1` [Example 129, {(S)-6-[(R)-4-(2,6-Dimethyl-4-(5-methoxy-pyridazin-3-yl)-phenyl)-7-fluoro-indan-1-yloxy]-2,3-dihydro-benzofuran-3-yl}-acetic acid] belongs 4 nM.
`Cc1nc(-c2cc(C)c(-c3ccc(F)c4c3CC[C@H]4Oc3ccc4c(c3)OC[C@H]4CC(=O)O)c(C)c2)no1` [Example 134, {(S)-6-[(R)-4-(2,6-Dimethyl-4-(5-methyl-[1,2,4]oxadiazol-3-yl)-phenyl)-7-fluoro-indan-1-yloxy]-2,3-dihydro-benzofuran-3-yl}-acetic acid] registered an EC50 of 3 nM.
The result for `Cc1cc(OCc2ncco2)cc(C)c1-c1ccc(F)c2c1CC[C@H]2Oc1ccc2c(c1)OC[C@H]2CC(=O)O` [Example 148, 2-((S)-6-((R)-4-(2,6-dimethyl-4-(oxazol-2-ylmethoxy)phenyl)-7-fluoro-2,3-dihydro-1H-inden-1-yloxy)-2,3-dihydrobenzofuran-3-yl)acetic acid] reads 13 nM.
Take `Cc1cc(O[C@@H]2CCCN(S(C)(=O)=O)C2)cc(C)c1-c1ccc(F)c2c1CC[C@H]2Oc1ccc2c(c1)OC[C@H]2CC(=O)O` [Example 49, ((S)-6-{(R)-7-Fluoro-4-[4-((R)-1-methanesulfonyl-piperidin-3-yloxy)-2,6-dimethyl-phenyl]-indan-1-yloxy}-2,3-dihydro-benzofuran-3-yl)-acetic acid]: the EC50 was found to be 10 nM.
